The results in this text go back to patent US20080026067A1, “Method for Increasing Specific Surface Area of Slightly Soluble Drug” (priority 2004, published 2008).

The structures appear in SMILES notation.

Type in all cases: physicochemical
A short description of data set [1]: Specific surface area of the powder, multipoint BET method. On the procedure:
A specific surface area of a powder of the compound A obtained by the above-described methods and the following Examples can be measured by known method, for example, multipoint BET method.
A specific surface area of the compound A was adjusted to give the crystalline powders with different specific surface area by the following method. As well, the measurement of specific surface area was performed by multipoint BET method.

A short description of data set [2]: Accelerated test (storage stability: purity by HPLC, degree of moisture by Karl Fisher). Conditions: for Degree of moisture (%) / Purity (%): crushing composition; for change (increase) of degree of moisture / decrease of purity: over 6 months at 40°C. On the procedure: 1 g of the powder of compound A was poured into the two-lay plastic bag and closed firmly with banding band. This was poured into miniature fiber dram and then this was preserved in the stability tester under the condition for 6 months, at 40° C., at 75% relative humidity. And then, the purity (quantitative value) and the degree of moisture (%) of the powder of compound A were measured. The measurement of the degree of moisture was performed by known method: the moisture vaporization method/Karl Fisher electrometrical titration method. The measurement of purity was performed by high performance liquid chromatography (HPLC).
About 0.04 mg/mL N,N-dimethylformamide/acetontirile (3/7) solution of reference material and measurement sample of compound A was prepared. In this case, the concentration of the solutions was precisely found. These solutions was set under the below test condition and the purity of measurement sample was calculated from the obtained area value of the peak.
• The detector: ultraviolet absorptiometer (measurement wavelength: 278 nm), • The column: YMC-Pack ODS-A-302 (inside diameter 4.6 mm, length 15 cm), • The mobile phase: acetonitrile/5 mmol/L sodium acetate buffer (It was prepared to pH 4.5 using acetate.)/2-propanol mixture (5/4/1), • The flow: The retention time of the compound A was prepared to be about 12 minutes (about 1.0 mL/min), • The column temperature: the constant temperature in the vicinity of 40° C. • The injection volume: 20 μL.

The nature of data set [3]: Measurement of bulk density. The procedure: A bulk density of a powder of the compound A is preferably in the range of about 0.05 to about 0.3 g/cm^3, and more preferably in the range of about 0.05 to about 0.2 g/cm^3. A bulk density can be measured by known method. It includes, for example, the method that about 3 g sample is precisely weighed, it is put into dried 50 mL graduated cylinder (scale: by 0.1 mL) without consolidation, it reads to minimum unit of scale and value that the weight (g) of particulate is divided by the volume (cm^3) of particulate is assumed bulk density (g/cm^3), and method described in the following Examples and so on.
About 3 g of compound A is precisely weighed, it is put into dried 50 mL graduated cylinder (scale: by 0.1 mL) without consolidation, it reads to minimum unit of scale. The value that the weight (g) of particulate is divided by the volume (cm^3) of particulate is assumed bulk density (g/cm^3). As a result, the bulk density of the powder of compound A prepared in Adjustment Example 4(3) was 0.18 g/cm^3 (non-crushing composition) and […] (crushing composition). The bulk density of compound A prepared in Adjustment Example 4(4) was 0.18 g/cm^3 (non-crushing composition) and 0.08 g/cm^3 (crushing composition).

A short description of data set [4]: Measurement of tap density. Conditions: tapped 3 minutes at 60 times/minute. The procedure:
A tap density of a powder of the compound A is preferably in the range of about 0.1 to about 0.4 g/cm^3, and more preferably in the range of about 0.1 to about 0.3 g/cm^3. A tap density can be measured by known method. It includes, for example, the method that about 3 g sample is precisely weighed, it is put into dried 50 mL graduated cylinder (scale: by 0.1 mL) without consolidation, the graduated cylinder is set on tapping machine for tap density, then it is tapped for 3 minutes at 60 times/minute, final tap density is found, and value that the weight (g) of particulate is divided by final tap density (cm^3) of particulate is assumed tap density (g/cm^3), and method described in the following Examples and so on.
About 3 g of the powder of compound A is precisely weighed, it is put into dried 50 mL graduated cylinder (scale: by 0.1 mL) without consolidation, the graduated cylinder is set on tapping machine for tap density, then it is tapped for 3 minutes at 60 times/minute, final tap density is found. The value that the weight (g) of particulate is divided by final bulk density (cm^3) of particulate is assumed tap density (g/cm^3). As a result, the tap density of the powder of compound A prepared in Adjustment Example 4(3) was 0.28 g/cm^3 (non-crushing composition) and 0.13 g/cm^3 (crushing composition). The tap density of tie powder of compound A prepared in Adjustment Example 4(4) was 0.23 g/cm^3 (non-crushing composition) and 0.16 g/cm^3 (crushing composition).[

The nature of data set [5]: Dissolution test (Japanese Pharmacopoeia method 2, Paddle method). Conditions: pH 6.8 McIlvaine buffer, 2.0% (w/v) sodium lauryl sulfate, 900 mL, 37°C, 50 rpm, 30 mg. On the procedure:
In the present invention, the dissolution rate in the dissolution test, according to dissolution test method 2 (Paddle method) of general test in the Japanese Pharmacopoeia, is the value that the method is performed on condition that 50 rounds per minute in pH6.8 McIlvaine buffer solution including 2.0% (w/v) sodium lauryl sulfate. More detail, it includes the method described in the following method or the method pursuant thereof and so on.
The powder of compound A prepared in the above described Preparation Example 4 (specific surface area=12.51 m^2/g) and Preparation Example 6 (specific surface area=5.46 m^2/g) was sieved by 60 mesh sieve (250 μm) respectively and the sieved material was weighed out 30 mg and then poured into the test solution. The dissolution test was performed under the below described condition of the dissolution test. However, the compound A was suspended with about 2 mL test solution and then the compound A poured into the test solution. The eluate 10 mL obtained at each sampling time was filtrated with membrane filter having 0.45 μm pore diameter. The first filtrate 2 mL was removed and the rest of filtrate was as the solution of test material. The compound A prepared in Preparation Example 12 was precisely weighed out about 33.3 mg and it was dissolved by adding methanol to adjust 100 mL. Among this solution, 5 mL was weighed out and it was added by test solution to adjust 50 mL. It was made as the standard solution (0.0333 mg/mL) that […] of the compound A was dissolved. The absorbance of the solution of test material and standard solution in wavelength 278 nm was measured by the measurement of ultraviolet visible absorbance respectively and according to the below formula, the dissolution rate was found.
The Dissolution Test Condition:
• Apparatus: The Japanese Pharmacopoeia, general test, dissolution test method 2 (Paddle method), • Test solution; McIlvaine buffer solution containing of 2.0% (w/v) sodium lauryl sulfate, pH 6.8 • Test solution volume: 900 mL • Temperature: 37±0.5° C. • Rotation speed: 50 rotations per minute • Sampling volume of eluate: 10 mL • Sampling time: 5, 10, 15, 30, 45, 60 and 90 minutes. [formula] [formula] • W: The volume of compound A containing of standard solution (33.3 mg) • t: The number of sampling • C: The volume of compound A poured into the test solution (30 mg) • Ct: The concentration of compound A in the solution of test material at t times sampling • ΣCn: The sum of the concentration of compound A in the solution of test material from n=1 to t−1 • At: The absorbance of the solution of test material • As: The average of absorbance of the […] of repeated measurement at three times • V: The volume of the test solution (900 mL) • v: The sampling volume of the eluate (10 mL)

Setting [6] is: crushing composition (jet mill crushed).
Where [7] appears, read: 6 months at 40°C, 75% relative humidity.

Regarding `Cc1ccc(-c2nc(CCOc3cccc4c3CCC=C4CCC(=O)O)c(C)o2)cc1` [Adjustment Example 3, 3-(5-{2-[5-methyl-2-(4-methylphenyl)-1,3-oxazol-4-yl]ethoxy}-3,4-dihydronaphthalen-1-yl)propanoic acid], the specific surface area in data set [1] (setting [6]) was found to be 20.6 m^2/g. This compound also came in with a specific surface area in data set [1] (non-crushing composition) of 19.6 m^2/g. For the same compound, in data set [2] (0 month), the “Degree of moisture (%)” value stood at 0.3% and the “Purity (%)” value came to 95.4%. In addition, in data set [2] (setting [7]), the “Degree of moisture (%)” value is reported as 0.6% and the “Purity (%)” value is 94.4%. Also, in data set [2] (75% relative humidity), the “change (increase) of degree of moisture” value worked out at 0.3% and the decrease of purity was found to be 1.0%.
As to `Cc1ccc(-c2nc(CCOc3cccc4c3CCC=C4CCC(=O)O)c(C)o2)cc1` [Adjustment Example 4(3), 3-(5-{2-[5-methyl-2-(4-methylphenyl)-1,3-oxazol-4-yl]ethoxy}-3,4-dihydronaphthalen-1-yl)propanoic acid], the specific surface area worked out at 12.7 m^2/g in data set [1] (setting [6]) and 11.0 m^2/g in data set [1] (non-crushing composition). Also, the bulk density turned out to be 0.8 g/mL in data set [3] (crushing composition) and 0.18 g/mL in data set [3] (non-crushing composition). Also, the tap density is 0.13 g/mL in data set [4] (crushing composition) and 0.28 g/mL in data set [4] (non-crushing composition).
`Cc1ccc(-c2nc(CCOc3cccc4c3CCC=C4CCC(=O)O)c(C)o2)cc1` [Adjustment Example 4(4), 3-(5-{2-[5-methyl-2-(4-methylphenyl)-1,3-oxazol-4-yl]ethoxy}-3,4-dihydronaphthalen-1-yl)propanoic acid]: the specific surface area in data set [1] (setting [6]) was determined as 13.4 m^2/g; in data set [1] (non-crushing composition) it was 11.2 m^2/g. Besides, the bulk density in data set [3] (crushing composition) came out at 0.08 g/mL; in data set [3] (non-crushing composition), 0.18 g/mL. Besides, the tap density in data set [4] (crushing composition) turned out to be 0.16 g/mL; in data set [4] (non-crushing composition), 0.23 g/mL. In addition, the “Degree of moisture (%)” value in data set [2] (0 month) and in data set [2] (setting [7]) was 0.1% in each case. In addition, the “Purity (%)” value is 98.5% in data set [2] (0 month) and 98.2% in data set [2] (setting [7]). Besides, the long-term storage stability result in data set [2] (setting [7]) is “stable in long-term storage”. Further, the “change (increase) of degree of moisture” value in data set [2] (75% relative humidity) is “no change”. Besides, in data set [2] (75% relative humidity), the decrease of purity is 0.3%.
`Cc1ccc(-c2nc(CCOc3cccc4c3CCC=C4CCC(=O)O)c(C)o2)cc1` [Adjustment Example 4, 3-(5-{2-[5-methyl-2-(4-methylphenyl)-1,3-oxazol-4-yl]ethoxy}-3,4-dihydronaphthalen-1-yl)propanoic acid] gave a specific surface area in data set [1] (powder as obtained) of 12.51 m^2/g. In addition, the “Dissolution rate (%)” value was determined as 0.00% in data set [5] (0 minutes); 65.46% in data set [5] (5 minutes); 76.67% in data set [5] (10 minutes); 82.17% in data set [5] (15 minutes); 88.95% in data set [5] (30 minutes); 92.15% in data set [5] (45 minutes). The “Dissolution rate (%)” value is 94.10% in data set [5] (60 minutes) and 96.20% in data set [5] (90 minutes).
Consider `Cc1ccc(-c2nc(CCOc3cccc4c3CCC=C4CCC(=O)O)c(C)o2)cc1` [Adjustment Example 6, 3-(5-{2-[5-methyl-2-(4-methylphenyl)-1,3-oxazol-4-yl]ethoxy}-3,4-dihydronaphthalen-1-yl)propanoic acid], for which, in data set [1] (powder as obtained), the specific surface area came out at 5.46 m^2/g. Moreover, the “Dissolution rate (%)” value worked out at 0.00% in data set [5] (0 minutes); 32.3% in data set [5] (5 minutes); 41.7% in data set [5] (10 minutes); 48.0% in data set [5] (15 minutes); 58.5% in data set [5] (30 minutes); 64.3% in data set [5] (45 minutes). Moreover, the “Dissolution rate (%)” value in data set [5] (60 minutes) was determined as 68.0%.
